Measurements as given in patent US9932288B2, “Chemical compound for inhibition of SHP2 function and for use as an anti-cancer agent” (West Virginia University, priority 2015, dated 2018).
Several values for one entry are separate records, joined by “and”; a condition that tells them apart may be missing. Equal entries are not always repeated.

Key:
[1] = biological target: T1, PTP domain of SHP2 fused to GST (Homo sapiens, UniProt Q06124); assay: phosphatase assay with DiFMUP substrate, GST-PTP of SHP2; assay type: biochemical
T1 construct: The PTP domains of SHP2 and SHP1 fused to glutathione-S-transferase (GST-PTPs) were expressed in E. coli; GST (N); made in house; host or cells: E. coli
T1 sequence (Q06124 247-517 limits assumed): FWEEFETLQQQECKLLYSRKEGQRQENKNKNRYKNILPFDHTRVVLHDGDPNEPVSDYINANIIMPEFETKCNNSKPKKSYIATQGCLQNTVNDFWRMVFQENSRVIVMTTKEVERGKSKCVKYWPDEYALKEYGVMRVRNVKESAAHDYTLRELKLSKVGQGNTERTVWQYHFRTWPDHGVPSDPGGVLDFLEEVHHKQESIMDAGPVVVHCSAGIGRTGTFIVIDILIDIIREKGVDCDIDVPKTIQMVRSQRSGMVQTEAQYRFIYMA
Description: (§1) The effect of CNBD on the SHP2 phosphatase activity was tested using the artificial substrate DiFMUP (6,8-difluoro-4-methylumbelliferyl) at a concentration of 20 μM, which is commonly used in phosphatase assays. CNBDA concentrations of 1.94 mM, 194 μM, 97 μM, 48.5 μM, 24.25 μM, 19.4 μM, 12.9 μM, and 1.94 μM in water were used in the analysis. The PTP domains of SHP2 and SHP1 fused to glutathione-S-transferase (GST-PTPs) were expressed in E. coli using a standard protein expression protocol and purified on glutathione sepharose beads as recommended by the manufacturer (Pharmacia), and quantified by measuring absorbance at 280 nm and comparison with BSA standards. Reactions were performed at 30° C. in 100 μl volume of PTPase buffer containing 25 mM Tris-HCl pH7.0, 50 mM NaCl, 2 mM EDTA and 10 mM dithiothreitol (DTT). Change in absorbance (production of DiFMU, dephosphorylated form of DiFMUP) was followed in a plate-reading visible spectrophotometer at 450 nm.

[2] = biological target: T2, PTP domain of SHP1 fused to GST (Homo sapiens, UniProt P29350); assay: phosphatase assay with DiFMUP substrate, GST-PTP of SHP1; assay type: biochemical; details: DiFMUP 20 μM, 30° C., pH7.0
T2 construct: The PTP domains of SHP2 and SHP1 fused to glutathione-S-transferase (GST-PTPs) were expressed in E. coli; GST (N); made in house; host or cells: E. coli
T2 sequence (P29350 244-515 limits assumed): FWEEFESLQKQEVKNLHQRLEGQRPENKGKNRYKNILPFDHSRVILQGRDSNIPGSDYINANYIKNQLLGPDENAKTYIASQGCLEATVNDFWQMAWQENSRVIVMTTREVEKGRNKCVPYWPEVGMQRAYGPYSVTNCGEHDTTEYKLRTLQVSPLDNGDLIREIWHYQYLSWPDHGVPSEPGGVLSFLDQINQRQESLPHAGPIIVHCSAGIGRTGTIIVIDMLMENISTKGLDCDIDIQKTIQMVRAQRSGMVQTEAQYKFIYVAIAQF
Description: as §1

[3] = test system: HER2-positive BT474 breast cancer cell line; assay: 2D culture cell growth and cell death, BT474; assay type: cell-based; details: BT474, 2D culture
Description: Therefore, the anti-cancer activity of CNBDA was tested in breast cancer cells under 2-dimensional (culture plates), soft agar, and suspension cultures. Because SHP2 is an essential downstream mediator of receptor tyrosine kinase (RTK) signaling, including HER2 and HER1 [24, 25], breast cancer cells that harbor dysregulated RTK and SHP2 signaling were chosen for testing the effect of CNDBA. Accordingly, the BT474 cell line that overexpress the human epidermal growth factor receptor 2 (HER2) and the MDA-MB468 cell line that overexpress HER1 (also known as EGFR) were used. The non-transformed MCF-10A breast epithelial cells were used as a “normal” control in these studies. The BT474 cells were grown in RPMI 1640, while the MDA-MB468 cells were grown in Dulbecco's Modified Eagle's Medium (DMEM), both supplemented with 10% fetal calf serum. On the other hand, the MCF-10A cells were grown in DMEM supplemented with […] recombinant human insulin, 20 ng/ml EGF (PeproTech), […] hydrocortisone, 100 ng/ml cholera toxin (Sigma) and 5% horse serum, as described previously. All cells were grown in a 37° C. incubator supplied with 5% CO2. In the 2D culture studies, cells were treated with vehicle alone (PBS: phosphate buffered saline) or three different concentration of CNBDA. When the density of cells reached approximately 30%, each plate was treated with vehicle alone (placebo) or the indicated concentrations of CNBDA. In the HER2-positive BT474 breast cancer cell line, CNBDA suppressed cell growth at the lowest concentration used (100 ng/ml) as determined by absence of gradual increase in cell density (FIG. 6A). But, at the 72 hour time point, it was possible to see signs of cell death as evidenced by shrinkage in the extended patchy growth property of these cells. At 500 ng/ml and higher concentrations, CNBDA induced cell death within 24 hours which became more evident gradually.
At the lowest concentration used, CNBDA was able to block cell growth and induction of cell death was apparent only after 48 hours. […]

[4] = test system: EGFR-amplified MDA-MB468 basal-like breast cancer cell line; assay: 2D culture cell growth and cell death, MDA-MB468; assay type: cell-based; details: MDA-MB468, 2D culture
Description: (§2) Therefore, the anti-cancer activity of CNBDA was tested in breast cancer cells under 2-dimensional (culture plates), soft agar, and suspension cultures. Because SHP2 is an essential downstream mediator of receptor tyrosine kinase (RTK) signaling, including HER2 and HER1 [24, 25], breast cancer cells that harbor dysregulated RTK and SHP2 signaling were chosen for testing the effect of CNDBA. Accordingly, the BT474 cell line that overexpress the human epidermal growth factor receptor 2 (HER2) and the MDA-MB468 cell line that overexpress HER1 (also known as EGFR) were used. The non-transformed MCF-10A breast epithelial cells were used as a “normal” control in these studies. The BT474 cells were grown in RPMI 1640, while the MDA-MB468 cells were grown in Dulbecco's Modified Eagle's Medium (DMEM), both supplemented with 10% fetal calf serum. On the other hand, the MCF-10A cells were grown in DMEM supplemented with […] recombinant human insulin, 20 ng/ml EGF (PeproTech), […] hydrocortisone, 100 ng/ml cholera toxin (Sigma) and 5% horse serum, as described previously. All cells were grown in a 37° C. incubator supplied with 5% CO2. […] In the HER2-positive BT474 breast cancer cell line, CNBDA suppressed cell growth at the lowest concentration used (100 ng/ml) as determined by absence of gradual increase in cell density (FIG. 6A). […]

[5] = test system: non-tumorigenic MCF-10A breast epithelial cells; assay: 2D culture cell growth, MCF-10A normal control; assay type: cell-based
Description: as §2

[6] = test system: BT474 cells; assay: soft agar anchorage-independent growth, BT474; assay type: cell-based
Description: (§3) Next, the efficacy of CNBDA was evaluated by the soft agar assay, a technique commonly used to determine ability of cells to grow in an anchorage-independent manner, one of the hall marks of a cancer cell. The HER2-positive BT474 and the HER1-positive MDA-MB468 cells were seeded in soft agar, treated with placebo or CNBDA at variable concentrations, cultured for 10 days, and their ability to form colonies was monitored by observation under a microscope. […] While the placebo-treated BT474 and MDA-MB468 cells formed larger and numerous colonies in 10 days, the CNBDA-treated counterparts formed smaller and fewer ones (FIG. 6B). In addition, the concentration of CNBDA that abolished colony formation in soft agar was at least 4-fold lower than the amount that caused cell death in 2D cultures in both cell lines (compare FIGS. 6A and 6B).
(§4) Note than the number and size of colonies decreases as the concentration of CNBDA increases. Also note that the concentration of CNBDA that abolished colony formation in the HER2-positive BT474 breast cancer cell line is 2-fold lower than the amount used in the MDA-MB468 cells.

[7] = test system: MDA-MB468 cells; assay: soft agar anchorage-independent growth, MDA-MB468; assay type: cell-based
Description: as §3, §4

[8] = test system: BT474 cells; assay: mammosphere formation in suspension culture, BT474; assay type: cell-based
Description: (§5) Finally, the effect of CNBDA on the above mentioned breast cancer cells (BT474 and MDA-MB468) was evaluated by the mammosphere formation assay in which cells with stem-like properties (including cancer stem cells) only can survive and form these structures. Briefly, cells were cultured in ultra-low adherence plates (1×10^6 cells per 6 cm plate) in a medium containing serum-free DMEM, 1 μg/ml hydrocortisone, 10 μg/ml insulin, 10 ng/ml EGF, 10 ng/ml FGF, 5 ng/ml heparin, and B27 (Invitrogen). After 10 days of culture, primary mammosphere formation was determined by observation under a microscope at which time pictures of mammospheres was taken at 4×objective. Next, the primary mammospheres were collected by centrifugation at 1000 rpm, dissociated to single cells by trypsination and pipetting, and re-cultured under same conditions to observe effect of SHP2 silencing on secondary mammosphere-forming capacity. Pictures of secondary cultures also were taken after 10 days at 4×objective. […] Similar to the anchorage-independent growth studies, the concentration of CNBDA that led to exhaustion of mammosphere formation was 4-5 fold lower than the amount needed for cell killing in the 2D cultures.
(§6) Note than the number and size of mammospheres decreases as the concentration of CNBDA increases.

[9] = test system: MDA-MB468 cells; assay: mammosphere formation in suspension culture, MDA-MB468; assay type: cell-based
Description: as §5, §6

SMILES: CCCCCCCCCOc1c(CCCC(=O)O)cc(-c2ccc(C(=O)O)cc2)cc1CCCC(=O)O [CNBDA]
- mode of SHP2 inhibition [1]: competitive SHP2 inhibitor
- IC50 ([1]; DiFMUP 20 μM, 30° C., pH7.0): 12 µM
- selectivity for SHP2 over SHP1 ([1]; from IC50 values): 10 fold
- IC50 [2]: 122 µM
- concentration that induced cell death within 24 hours [3]: ≥ 500 ng/mL
- time at which cell death became apparent at the lowest concentration ([3]; 100 ng/ml): 72 h and > 48 h
- concentration that suppressed cell growth (lowest used) ([3]; absence of increase in cell density): 100 ng/mL
- concentration showing effect, relative to BT474 cells [4]: double the concentration
- minimum concentration needed to induce cell death after 48 hours ([4]; pilot studies): 1 µg/mL
- effect on cell growth and cell death at the higher concentration used ([5]; 6 μg/ml): did not cause a significant decrease in cell growth or induce cell death
- effect on cell growth ([5]; 2D culture): very little effect
- concentration abolishing colony formation, fold lower than amount causing cell death in 2D culture ([6]; BT474): at least 4 fold
- colony formation in soft agar ([6]; BT474, 10 days, concentration dependent): suppression of colony formation
- concentration abolishing colony formation in BT474, fold lower than in MDA-MB468 ([6]; soft agar): 2 fold
- concentration abolishing colony formation, fold lower than amount causing cell death in 2D culture ([7]; MDA-MB468): at least 4 fold
- colony formation in soft agar ([7]; MDA-MB468, 10 days, concentration dependent): suppression of colony formation
- concentration exhausting mammosphere formation, fold lower than amount needed for cell killing in 2D cultures ([8]; BT474): 4-5 fold
- mammosphere formation ([8]; BT474, suspension culture, concentration dependent): suppressed mammosphere formation
- concentration abolishing mammosphere formation in BT474, fold lower than in MDA-MB468 ([8]; suspension culture): 2 fold
- concentration exhausting mammosphere formation, fold lower than amount needed for cell killing in 2D cultures ([9]; MDA-MB468): 4-5 fold
- mammosphere formation ([9]; MDA-MB468, suspension culture, concentration dependent): suppressed mammosphere formation
